Source: ChEMBL document CHEMBL3407465, “Interaction of human organic anion transporter polypeptides 1B1 and 1B3 with antineoplastic compounds” (Eur J Med Chem, 2015)

Key:
[1] = target: T1, Solute carrier organic anion transporter family member 1B1 (Homo sapiens, UniProt Q9Y6L6); test: Inhibition of human OATP1B1-mediated [3H]estrone 3-sulfate at 100 uM after 5 mins relative to control; type: ADME
T1 sequence (Q9Y6L6 whole entry): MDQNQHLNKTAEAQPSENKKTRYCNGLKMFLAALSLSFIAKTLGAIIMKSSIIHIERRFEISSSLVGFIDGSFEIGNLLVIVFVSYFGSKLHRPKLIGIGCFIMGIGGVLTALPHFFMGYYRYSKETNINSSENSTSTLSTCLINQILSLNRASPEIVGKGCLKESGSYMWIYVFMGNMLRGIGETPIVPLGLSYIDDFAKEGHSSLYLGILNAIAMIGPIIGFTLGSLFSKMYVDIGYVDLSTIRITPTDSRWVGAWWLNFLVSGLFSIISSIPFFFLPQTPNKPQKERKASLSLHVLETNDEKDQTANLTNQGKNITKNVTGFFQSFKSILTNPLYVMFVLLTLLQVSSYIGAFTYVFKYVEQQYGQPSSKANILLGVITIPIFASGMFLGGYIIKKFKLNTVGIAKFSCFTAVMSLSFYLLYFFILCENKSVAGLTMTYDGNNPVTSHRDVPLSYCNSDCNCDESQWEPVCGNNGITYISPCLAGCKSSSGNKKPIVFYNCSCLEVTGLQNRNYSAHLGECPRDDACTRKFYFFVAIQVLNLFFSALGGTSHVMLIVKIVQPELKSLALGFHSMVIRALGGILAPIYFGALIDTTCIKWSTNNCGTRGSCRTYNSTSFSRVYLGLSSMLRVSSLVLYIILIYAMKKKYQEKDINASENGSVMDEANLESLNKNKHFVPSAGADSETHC

[2] = target: T2, Solute carrier organic anion transporter family member 1B3 (Homo sapiens, UniProt Q9NPD5); test: Inhibition of human OATP1B3-mediated [3H]CCK-8 at 100 uM after 5 mins relative to control; type: ADME
T2 sequence (Q9NPD5 whole entry): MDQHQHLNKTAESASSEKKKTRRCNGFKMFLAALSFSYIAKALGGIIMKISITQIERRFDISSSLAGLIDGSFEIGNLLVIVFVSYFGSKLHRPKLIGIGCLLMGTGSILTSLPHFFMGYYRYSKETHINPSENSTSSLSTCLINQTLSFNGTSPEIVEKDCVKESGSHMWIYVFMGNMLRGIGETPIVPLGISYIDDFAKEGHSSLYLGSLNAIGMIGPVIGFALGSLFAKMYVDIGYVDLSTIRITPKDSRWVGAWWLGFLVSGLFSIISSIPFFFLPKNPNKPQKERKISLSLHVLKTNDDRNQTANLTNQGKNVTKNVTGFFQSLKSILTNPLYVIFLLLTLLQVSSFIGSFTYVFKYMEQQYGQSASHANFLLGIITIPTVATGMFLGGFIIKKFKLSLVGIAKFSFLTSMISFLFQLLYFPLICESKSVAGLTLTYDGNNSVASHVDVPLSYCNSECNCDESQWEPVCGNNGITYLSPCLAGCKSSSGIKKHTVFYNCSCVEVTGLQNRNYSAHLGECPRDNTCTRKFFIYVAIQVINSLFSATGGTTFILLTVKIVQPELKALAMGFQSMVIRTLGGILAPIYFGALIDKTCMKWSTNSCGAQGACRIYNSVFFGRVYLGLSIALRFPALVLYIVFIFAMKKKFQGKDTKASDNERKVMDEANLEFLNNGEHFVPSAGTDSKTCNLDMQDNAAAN

[3] = target: T2, Solute carrier organic anion transporter family member 1B3; test: Stimulation of human OATP1B3-mediated [3H]CCK-8 at 100 uM after 5 mins relative to control; type: ADME
[4] = target: T2, Solute carrier organic anion transporter family member 1B3; test: Inhibition of human OATP1B3-mediated [3H]CCK-8 after 5 mins by Dixon plot method; type: ADME
OATP1B3 = target: T3, OATP1B3 (Homo sapiens, UniProt Q9NPD5); test: Inhibition of OATP1B3 (unknown origin)-mediated sodium fluorescein expressed in CHO cells at 10 uM; type: ADME, cell-based; conditions: CHO cells expressing OATP1B3, probe sodium fluorescein
T3 sequence (Q9NPD5 whole entry): T2 sequence (Q9NPD5 whole entry)

[5] = target: T1, Solute carrier organic anion transporter family member 1B1; test: Stimulation of human OATP1B1-mediated [3H]estrone 3-sulfate at 100 uM after 5 mins relative to control; type: ADME
[6] = target: T1, Solute carrier organic anion transporter family member 1B1; test: Inhibition of human OATP1B1-mediated [3H]estrone 3-sulfate at after 5 mins by Dixon plot method; type: ADME

Row | SMILES | inhibition (INH) [2] [%] | Activity [3] [%] | Activity [5] [%] | also measured
1 | COc1cccc2c1C(=O)c1c(O)c3c(c(O)c1C2=O)C[C@@](O)(C(=O)CO)C[C@@H]3O[C@H]1C[C@H](N)[C@H](O)[C@H](C)O1 [DOXORUBICIN] | 53.6 |  |  | inhibition (INH) [1]: 12%
2 | Nc1nc(F)nc2c1ncn2[C@@H]1O[C@H](CO)[C@@H](O)[C@@H]1O [FLUDARABINE] |  | 12 |  | 
3 | CC[C@]1(O)C[C@H]2CN(CCc3c([nH]c4ccccc34)[C@@](C(=O)OC)(c3cc4c(cc3OC)N(C=O)[C@H]3[C@@](O)(C(=O)OC)[C@H](OC(C)=O)[C@]5(CC)C=CCN6CC[C@]43[C@@H]65)C2)C1 [VINCRISTINE] | 65.1 |  |  | IC50 [4]: 36.8 µM; Ki [4]: 17.6 µM; inhibition (INH) [1]: 28.1%
4 | CC(=O)O[C@H]1C(=O)[C@@]2(C)[C@H]([C@H](OC(=O)c3ccccc3)[C@]3(O)C[C@H](OC(=O)[C@H](O)[C@@H](NC(=O)c4ccccc4)c4ccccc4)C(C)=C1C3(C)C)[C@]1(OC(C)=O)CO[C@@H]1C[C@@H]2O [PACLITAXEL] | 94.4 |  |  | IC50 [4]: 0.26 µM; Ki [4]: 1.8 µM; inhibition at 10 µM (OATP1B3): 52.9%
5 | CCc1c2c(nc3ccc(OC(=O)N4CCC(N5CCCCC5)CC4)cc13)-c1cc3c(c(=O)n1C2)COC(=O)[C@]3(O)CC [IRINOTECAN] | 34.3 |  | 93.3 | 
6 | C[C@]12C=CC(=O)C=C1CC[C@@H]1[C@@H]2C(=O)C[C@@]2(C)[C@H]1CC[C@]2(O)C(=O)CO [PREDNISONE] | 12.5 |  |  | inhibition (INH) [1]: 9.8%
7 | Nc1nc(Cl)nc2c1ncn2[C@H]1C[C@H](O)[C@@H](CO)O1 [CLADRIBINE] |  | 10 | 15.9 | 
8 | O=C(O)CCCc1ccc(N(CCCl)CCCl)cc1 [CHLORAMBUCIL] | 66 |  | 18.8 | IC50 [4]: 80.7 µM; Ki [4]: 37.4 µM
9 | O=C1c2c(O)ccc(O)c2C(=O)c2c(NCCNCCO)ccc(NCCNCCO)c21 [MITOXANTRONE] | 84.4 |  |  | IC50 [4]: 3.39 µM; Ki [4]: 3.1 µM; inhibition (INH) [1]: 18.9%
10 | Nc1ccn([C@@H]2O[C@H](CO)[C@@H](O)[C@@H]2O)c(=O)n1 [CYTARABINE] |  | 17.7 |  | 
11 | O=P1(NCCCl)OCCCN1CCCl (centres undefined) [IFOSFAMIDE] |  |  | 7.4 | 
12 | CN(Cc1cnc2nc(N)nc(N)c2n1)c1ccc(C(=O)N[C@@H](CCC(=O)O)C(=O)O)cc1 [METHOTREXATE] |  | 12 |  | 
13 | CC[C@]1(O)C[C@@H]2CN(CCc3c([nH]c4ccccc34)[C@@](C(=O)OC)(c3cc4c(cc3OC)N(C)[C@H]3[C@@](O)(C(=O)OC)[C@H](OC(C)=O)[C@]5(CC)C=CCN6CC[C@]43[C@@H]65)C2)C1 [VINBLASTINE] | 81.5 |  |  | IC50 [4]: 43.5 µM; Ki [4]: 18.6 µM; inhibition (INH) [1]: 64.1%; IC50 [6]: 46.8 µM; Ki [6]: 10.2 µM
14 | O=P1(N(CCCl)CCCl)NCCCO1 (centres undefined) [CYCLOPHOSPHAMIDE ANHYDROUS] |  | 8.7 | 5.6 | 
15 | Cn1c(CCCC(=O)O)nc2cc(N(CCCl)CCCl)ccc21 [BENDAMUSTINE] | 48.8 |  |  | 
16 | Nc1ccn([C@@H]2O[C@H](CO)[C@@H](O)C2(F)F)c(=O)n1 [GEMCITABINE] |  | 11.1 |  | 
17 | S=P(N1CC1)(N1CC1)N1CC1 [THIOTEPA] |  |  | 11.9 | 
